From patent publication US20120015925A1, “NOVEL BENZOTHIAZEPINE AND BENZOTHIEPINE COMPOUNDS” (ASAHI KASEI PHARMA CORPORATION, priority 2004, published 2012)

Legend:
[1] = tested on: rats fed cholesterol food; experiment: Blood cholesterol lowering effect in rats fed cholesterol food; assay type: in vivo, rat; details: 0.3 mg/kg per administration, oral, twice per day; SD (IGS) male rats; serum 3 hours after final administration
Experimental: In the present Test Example, a blood cholesterol lowering effect on rats fed cholesterol food was evaluated according to the method described in J. Lipid Res., 1995, 36, 1098-1105.
That is, the food containing 0.4% cholesterol and 0.5% bile acid was given to SD (IGS) strain male rats at 7 to 9 weeks of age for 5 days in advance of the test date, to increase blood cholesterol levels. The rats in which the blood cholesterol level had been obviously elevated from the level before loading the cholesterol food were selected as the subjects in the test. Colestimide (brand name: Cholebine 70% granules, supplied from Mitsubishi Tokyo Pharmaceutical Inc.) which is an anion exchange resin drug was suspended in distilled water, and the test compound was dissolved or suspended in distilled water. They were orally administered forcibly twice per day everyday from the starting date (each n=8). The blood was collected from jugular vein 3 hours after the drug administration on the final day of the experiment, and the cholesterol level in serum was measured to examine the effect of the test compound. As a control, another group (n=8) was merely fed cholesterol food, to which distilled water (1 mL/kg) was administered and the same procedure was applied. The total cholesterol value and the HDL cholesterol value were measured using commercially available kits. The value obtained by subtracting the HDL cholesterol value from the total cholesterol value was regarded as an LDL+VLDL cholesterol value.

[2] = tested on: rats with partial ligation of the bile duct dosed bile acid; experiment: Model for hepatic disorder associated with cholestasis (partial bile duct ligation model), Protocol A: AST, ALT, ALP; assay type: in vivo, rat; details: 1 mg/kg in 1% HCO 60, N=3, mean±standard error
Text: In the present Test Example, a model for the hepatic disorder caused by partial ligation of the bile duct was employed with reference to Kanno's method (Liver, 43, Suppl(1):A126, 2002).
That is, to the SD (IGS) strain male rats at 7 to 10 weeks of age, the partial ligation of the bile duct was given with opening the abdominal cavity under anesthesia with pentobarbital. Before the operation, the blood was collected from femoral vein, in order to obtain the value before the administration. From the day after the operation, 200 mg/kg of bile acid and the test compound were orally administered forcibly twice per day for 3.5 days (Protocol A). Without giving the partial ligation of the bile duct, 200 mg/kg of bile acid and the test compound were also orally administered forcibly twice per day for 3.5 days (Protocol B). In both cases, the test compound was dissolved or suspended in distilled water or an aqueous solution of 1% HCO 60 (Nippon Chemicals). To the control group, saline was administered. As comparative examples, 25 mg/kg of cholestyramine (supplied from Sigma) or 50 mg/kg of ursodeoxycholic acid (supplied from Mitsubishi Pharma) was administered. For considering the effect of the operation, sham operation (sham group) was performed in some cases. The blood was collected from the abdominal aorta 6 hours after the drug administration on the final day of the experiment. AST (GOT), ALT (GPT) and ALP in the blood were measured using measurement kits (GOT II-HA Test Wako, GPT II-HA Test Wako and Alkaline Phosphor HA Test Wako, all were supplied from Wako Pure Chemical Industries) and using an automatic analyzer (Nitech ANALAYZER SUPER Z818).

[3] = tested on: Caco-2 cell; experiment: Gastrointestinal toxicity: cytotoxicity against Caco-2 cell (LDH activity); assay type: cell-based, human; details: 2 hours, LDH activity in medium relative to cell lysis agent = 100%
In short: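 Caco-2 cells were grown 48 h, then exposed to compound in medium for 2 h. LDH released into the medium was measured, and cytotoxicity was expressed as activity relative to lysis-agent-treated cells (100%).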

[4] = tested on: male beagle dogs; experiment: Effect of combination with pravastatin on plasma total cholesterol levels in dogs; assay type: in vivo, dog; details: for plasma total cholesterol BEFORE TREATMENT: Example compound 3 mg/kg alone group, baseline; for plasma total cholesterol BEFORE TREATMENT / plasma total cholesterol AFTER TREATMENT: N=4, mean±standard error; for plasma total cholesterol AFTER TREATMENT / plasma total cholesterol BEFORE TREATMENT − AFTER TREATMENT / reduction rate with respect to the data before administration (number in parenthesis): Example compound 3 mg/kg alone, oral once daily for 7 days; for plasma total cholesterol BEFORE TREATMENT − AFTER TREATMENT / reduction rate with respect to the data before administration (number in parenthesis): vehicle 1
Text: The effect of the combination of the compounds described in Example with pravastatin (HMG-CoA reductase inhibitor) on plasma cholesterol levels in dogs was examined.
To male beagle dogs (supplied from Kitayama Labes, body weight 9 to 13 kg), usual solid feedstuff (DS-A: Oriental Yeast Co., Ltd.) was given once daily at 13:00 to 14:00. The light was turned on from 7:00 to 19:00 as a light period, and the remaining was defined as a dark period. Water was given ad libitum. In the morning in the week prior to the administration, the blood was collected with heparin from forearm cephalic vein, and plasma was collected by centrifugation. The total cholesterol level of this plasma was measured using the commercially available cholesterol level measurement kit by the enzymatic method (Cholesterol-E Test Wako). The dogs were grouped so that the total cholesterol levels were almost equal. Sodium pravastatin (1 mg/kg, Sankyo) alone or 3 mg/kg of the compound described in each of Examples alone or the combination thereof was orally administered once daily just before feeding for 7 days. Pravastatin was dissolved in distilled water, and the compound described in Example was suspended in 0.5% methylcellulose solution for administration. On the day after the final administration, the blood was collected from the forearm cephalic vein under starving, to which plasma was obtained. The total cholesterol level therein was measured by the same way. As a result, the total cholesterol level in the plasma was reduced by 7 mg/dL (6%) by orally administering 1 mg/kg/day of pravastatin for 7 days. The total cholesterol level in the plasma was reduced by […] (3 to 8%) by orally administering 3 mg/kg/day of the compound described in each of Examples for 7 days. When pravastatin and the compound described in each of Examples were co-administered at this dosages, the total cholesterol in the plasma was reduced by 14 to 24 mg/dL (12 to 20%). The reduction rate of the total cholesterol level was larger in the co-administration with the compound described in Example than in the administration of pravastatin alone, and the augmented effect by the co-administration was observed.

[5] = Table 12-1, Protocol A, control group 417 ± 185, sham 43 ± 1
[6] = Table 12-1, Protocol A, control group 589 ± 221, sham 141 ± 26
[7] = Table 12-1, Protocol A, control group 2318 ± 583, sham 665 ± 94
[8] = Table 12-2, control group 384 ± 156, sham 48 ± 5
[9] = Table 12-2, control group 643 ± 125, sham 128 ± 18
[10] = Table 12-2, control group 2204 ± 327, sham 630 ± 87

Structure (SMILES): C#CC[N+](C)(Cc1ccccc1)Cc1ccc(NC(=S)Nc2cccc(C3NC(CCCC)(CCCC)CS(=O)(=O)c4ccc(N(C)C)cc43)c2)cc1.[Br-] (racemic) [EXAMPLE 3448]
- LDL + VLDL REDUCTION RATE (%) IN CHOLESTEROL FED RAT MODEL (THERAPEUTIC MODEL) [1]: 20%
- ALT [2, 5]: 181 ± 79 IU/L
- AST [2, 6]: 352 ± 210 IU/L
- ALP [2, 7]: 1148 ± 332 IU/L
- CELL TOXICITY AGAINST Caco2 3 μM [3]: <1%
- CELL TOXICITY AGAINST Caco2 10 μM [3]: <1%
- CELL TOXICITY AGAINST Caco2 30 μM [3]: <1%

Structure (SMILES): CCCCC1(CCCC)CS(=O)(=O)c2ccc(N(C)C)cc2C(c2cccc(NC(=S)Nc3ccc(C[N+]45CCC(c6ccccc6)(CC4)CC5)cc3)c2)N1.[Br-] (racemic) [EXAMPLE 3696]
- LDL + VLDL REDUCTION RATE (%) IN CHOLESTEROL FED RAT MODEL (THERAPEUTIC MODEL) [1]: 25%
- ALT [2, 8]: 191 ± 21 IU/L
- AST [2, 9]: 325 ± 87 IU/L
- ALP [2, 10]: 1209 ± 125 IU/L
- CELL TOXICITY AGAINST Caco2 3 μM [3]: <1%
- CELL TOXICITY AGAINST Caco2 10 μM [3]: <1%
- CELL TOXICITY AGAINST Caco2 30 μM [3]: <1%
- plasma total cholesterol BEFORE TREATMENT [4]: 119 ± 2 mg/dL
- plasma total cholesterol AFTER TREATMENT [4]: 115 ± 3 mg/dL
- plasma total cholesterol BEFORE TREATMENT − AFTER TREATMENT [4]: 3 (3) mg/dL
- reduction rate with respect to the data before administration (number in parenthesis) [4]: 3 (3)

Structure (SMILES): CCCCC1(CCCC)CS(=O)(=O)c2ccc(N(C)C)cc2C(c2cccc(NC(=S)Nc3ccc(C[N+](C)(C)Cc4ccccc4)cc3)c2)N1.[Br-] (centres unmarked) [EXAMPLE 3440]
- LDL + VLDL REDUCTION RATE (%) IN CHOLESTEROL FED RAT MODEL (THERAPEUTIC MODEL) [1]: 36%
- ALT [2, 5]: 155 ± 38 IU/L
- AST [2, 6]: 309 ± 37 IU/L
- ALP [2, 7]: 1614 ± 189 IU/L
- CELL TOXICITY AGAINST Caco2 3 μM [3]: <1%
- CELL TOXICITY AGAINST Caco2 10 μM [3]: <1%
- CELL TOXICITY AGAINST Caco2 30 μM [3]: <1%

Structure (SMILES): CCCCC1(CCCC)CS(=O)(=O)c2ccc(N(C)C)cc2C(c2cccc(NC(=S)Nc3ccc(C[N+]4(Cc5ccccc5)CCC(O)CC4)cc3)c2)N1.[Br-] (centres unmarked) [EXAMPLE 3605]
- LDL + VLDL REDUCTION RATE (%) IN CHOLESTEROL FED RAT MODEL (THERAPEUTIC MODEL) [1]: 28%
- ALT [2, 5]: 258 ± 219 IU/L
- AST [2, 6]: 487 ± 382 IU/L
- ALP [2, 7]: 1489 ± 533 IU/L
- CELL TOXICITY AGAINST Caco2 3 μM [3]: <1%
- CELL TOXICITY AGAINST Caco2 10 μM [3]: <1%
- CELL TOXICITY AGAINST Caco2 30 μM [3]: <1%

Structure (SMILES): CCCCC1(CCCC)CS(=O)(=O)c2ccc(N(C)C)cc2C(c2cccc(NC(=S)Nc3ccc(C[n+]4ccc(C(C)(C)C)cc4)cc3)c2)N1.[Br-] (centres unmarked) [EXAMPLE 3713]
- LDL + VLDL REDUCTION RATE (%) IN CHOLESTEROL FED RAT MODEL (THERAPEUTIC MODEL) [1]: 41%
- ALT [2, 8]: 163 ± 96 IU/L
- AST [2, 9]: 280 ± 61 IU/L
- ALP [2, 10]: 1008 ± 289 IU/L
- CELL TOXICITY AGAINST Caco2 3 μM [3]: <1%
- CELL TOXICITY AGAINST Caco2 10 μM [3]: <1%
- CELL TOXICITY AGAINST Caco2 30 μM [3]: <1%
- plasma total cholesterol BEFORE TREATMENT [4]: 117 ± 4 mg/dL
- plasma total cholesterol AFTER TREATMENT [4]: 113 ± 3 mg/dL
- plasma total cholesterol BEFORE TREATMENT − AFTER TREATMENT [4]: 4 mg/dL
- reduction rate with respect to the data before administration (number in parenthesis) [4]: 3

Structure (SMILES): CCCCC1(CCCC)CS(=O)(=O)c2ccc(N(C)C)cc2C(c2cccc(NC(=S)Nc3ccc(C[n+]4cccc(CCCO)c4)cc3)c2)N1.[Br-] (centres unmarked) [EXAMPLE 3747]
- LDL + VLDL REDUCTION RATE (%) IN CHOLESTEROL FED RAT MODEL (THERAPEUTIC MODEL) [1]: 48%
- ALT [2, 8]: 146 ± 70 IU/L
- AST [2, 9]: 245 ± 81 IU/L
- ALP [2, 10]: 960 ± 259 IU/L
- CELL TOXICITY AGAINST Caco2 3 μM [3]: <1%
- CELL TOXICITY AGAINST Caco2 10 μM [3]: <1%
- CELL TOXICITY AGAINST Caco2 30 μM [3]: <1%

Structure (SMILES): CCCCC1(CCCC)CS(=O)(=O)c2ccc(N(C)C)cc2C(c2cccc(NC(=S)Nc3ccc(C[n+]4cccc(CCC(=O)OC)c4)cc3)c2)N1.[Br-] (centres unmarked) [EXAMPLE 3752]
- LDL + VLDL REDUCTION RATE (%) IN CHOLESTEROL FED RAT MODEL (THERAPEUTIC MODEL) [1]: 50%
- ALT [2, 8]: 165 ± 47 IU/L
- AST [2, 9]: 358 ± 87 IU/L
- ALP [2, 10]: 1112 ± 184 IU/L
- CELL TOXICITY AGAINST Caco2 3 μM [3]: <1%
- CELL TOXICITY AGAINST Caco2 10 μM [3]: <1%
- CELL TOXICITY AGAINST Caco2 30 μM [3]: <1%

Structure (SMILES): CCCCC1(CCCC)CS(=O)(=O)c2ccc(N(C)C)cc2C(c2cccc(NC(=S)Nc3ccc(C[n+]4ccccc4CCC)cc3)c2)N1.[Br-] (centres unmarked) [EXAMPLE 5408]
- LDL + VLDL REDUCTION RATE (%) IN CHOLESTEROL FED RAT MODEL (THERAPEUTIC MODEL) [1]: 43%
- ALT [2, 8]: 197 ± 45 IU/L
- AST [2, 9]: 198 ± 65 IU/L
- ALP [2, 10]: 1005 ± 102 IU/L
- CELL TOXICITY AGAINST Caco2 3 μM [3]: <1%
- CELL TOXICITY AGAINST Caco2 10 μM [3]: <1%
- CELL TOXICITY AGAINST Caco2 30 μM [3]: <1%
- plasma total cholesterol BEFORE TREATMENT [4]: 128 ± 4 mg/dL
- plasma total cholesterol AFTER TREATMENT [4]: 122 ± 4 mg/dL
- plasma total cholesterol BEFORE TREATMENT − AFTER TREATMENT [4]: 6 mg/dL
- reduction rate with respect to the data before administration (number in parenthesis) [4]: 5
